The source of these data is ChEMBL document CHEMBL5678818, “Discovery of potent SOS1 inhibitors that block RAS activation via disruption of the RAS-SOS1 interaction” (Proc Natl Acad Sci U S A, 2019).

Assay [1] has as its system Tyrosine-protein kinase ABL1 (Homo sapiens), P00519 [F317I]. The experiment in a line: Inhibition of nonphosphorylated ABL1 F317I mutant (unknown origin) assessed as residual activity at 100 nM by KINOMEscan analysis relative to control.
In assay [2] the target is T1, Serine/threonine-protein kinase Nek3 (Homo sapiens) (UniProt P51956).
T1 sequence (whole entry): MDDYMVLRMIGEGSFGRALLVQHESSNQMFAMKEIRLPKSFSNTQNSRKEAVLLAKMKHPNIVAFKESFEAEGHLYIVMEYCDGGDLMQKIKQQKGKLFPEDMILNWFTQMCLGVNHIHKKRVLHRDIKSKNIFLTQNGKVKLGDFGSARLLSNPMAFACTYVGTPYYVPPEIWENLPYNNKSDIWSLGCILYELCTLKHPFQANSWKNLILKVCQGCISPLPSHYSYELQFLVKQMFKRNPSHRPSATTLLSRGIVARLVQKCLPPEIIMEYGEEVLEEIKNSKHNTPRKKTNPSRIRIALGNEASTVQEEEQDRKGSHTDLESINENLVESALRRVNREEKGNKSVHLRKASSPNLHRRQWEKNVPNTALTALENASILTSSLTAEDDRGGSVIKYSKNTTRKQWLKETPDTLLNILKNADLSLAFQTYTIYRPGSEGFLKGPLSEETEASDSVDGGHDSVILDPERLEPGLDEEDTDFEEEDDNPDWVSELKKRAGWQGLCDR
As to the kind of experiment: Inhibition of NEK3 (unknown origin) assessed as residual activity at 100 nM by KINOMEscan analysis relative to control.

The subject of assay [3] is Epidermal growth factor receptor (Homo sapiens), P00533 [L858R]. As to the kind of experiment: Inhibition of EGFR L858R mutant (unknown origin) assessed as residual activity at 100 nM by KINOMEscan analysis relative to control.
Assay [4] deals with Tyrosine-protein kinase SYK (Homo sapiens) (UniProt P43405). As to the kind of experiment: Inhibition of SYK (unknown origin) assessed as residual activity at 100 nM by KINOMEscan analysis relative to control.
The target in assay [5] is Cyclin-dependent kinase 13 (Homo sapiens) (UniProt Q14004). The experiment in a line: Inhibition of CDC2L5 (unknown origin) assessed as residual activity at 100 nM by KINOMEscan analysis relative to control.
For assay [6], the target named is T2, Tyrosine-protein kinase Mer (Homo sapiens) (UniProt Q12866).
T2 sequence (whole entry): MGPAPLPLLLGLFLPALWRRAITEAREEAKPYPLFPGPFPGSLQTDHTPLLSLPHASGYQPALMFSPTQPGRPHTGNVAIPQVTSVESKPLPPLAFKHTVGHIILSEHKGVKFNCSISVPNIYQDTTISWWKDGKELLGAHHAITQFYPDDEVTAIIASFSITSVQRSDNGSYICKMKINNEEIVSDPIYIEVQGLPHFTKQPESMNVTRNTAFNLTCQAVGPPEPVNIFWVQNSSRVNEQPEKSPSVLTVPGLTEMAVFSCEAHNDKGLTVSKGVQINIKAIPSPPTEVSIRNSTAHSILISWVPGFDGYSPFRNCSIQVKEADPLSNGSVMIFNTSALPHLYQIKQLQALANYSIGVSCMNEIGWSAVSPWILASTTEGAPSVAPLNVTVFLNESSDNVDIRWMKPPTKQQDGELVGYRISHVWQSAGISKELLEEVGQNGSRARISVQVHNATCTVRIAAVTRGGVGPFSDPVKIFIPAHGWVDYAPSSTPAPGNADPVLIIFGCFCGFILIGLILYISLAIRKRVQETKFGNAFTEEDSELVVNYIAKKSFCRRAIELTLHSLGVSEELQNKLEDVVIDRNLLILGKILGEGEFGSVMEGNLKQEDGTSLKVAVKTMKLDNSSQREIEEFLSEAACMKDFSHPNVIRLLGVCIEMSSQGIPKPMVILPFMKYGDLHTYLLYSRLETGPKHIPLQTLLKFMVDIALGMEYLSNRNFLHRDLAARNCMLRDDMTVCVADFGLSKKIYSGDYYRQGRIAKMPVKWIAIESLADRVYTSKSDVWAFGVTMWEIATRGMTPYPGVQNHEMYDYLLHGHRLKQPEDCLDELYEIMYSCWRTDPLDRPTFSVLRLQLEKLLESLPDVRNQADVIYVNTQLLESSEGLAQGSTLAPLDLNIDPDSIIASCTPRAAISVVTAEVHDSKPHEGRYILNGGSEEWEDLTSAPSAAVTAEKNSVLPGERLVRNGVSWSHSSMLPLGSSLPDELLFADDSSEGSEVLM
As to the kind of experiment: Inhibition of MERTK (unknown origin) assessed as residual activity at 100 nM by KINOMEscan analysis relative to control.

Assay [7] concerns the target Tyrosine-protein kinase Srms (Homo sapiens) (UniProt Q9H3Y6). As to the kind of experiment: Inhibition of SRMS (unknown origin) assessed as residual activity at 100 nM by KINOMEscan analysis relative to control.
For assay [8], the target named is Phosphorylase b kinase gamma catalytic chain, skeletal muscle/heart isoform (Homo sapiens) (UniProt Q16816). The experiment in a line: Inhibition of PHKG1 (unknown origin) assessed as residual activity at 100 nM by KINOMEscan analysis relative to control.
The subject of assay [9] is Leucine-rich repeat serine/threonine-protein kinase 2 (Homo sapiens), Q5S007 [G2019S]. The experiment in a line: Inhibition of LRRK2 G2019S mutant (unknown origin) assessed as residual activity at 100 nM by KINOMEscan analysis relative to control.
The target in assay [10] is Serine/threonine-protein kinase 35 (Homo sapiens) (UniProt Q8TDR2). As to the kind of experiment: Inhibition of STK35 (unknown origin) assessed as residual activity at 100 nM by KINOMEscan analysis relative to control.
For assay [11], the target named is Macrophage colony-stimulating factor 1 receptor (Homo sapiens) (UniProt P07333). The experiment in a line: Inhibition of CSF1R (unknown origin) assessed as residual activity at 100 nM by KINOMEscan analysis relative to control.
Assay [12] deals with Serine/threonine-protein kinase 32C (Homo sapiens) (UniProt Q86UX6). As to the kind of experiment: Inhibition of YANK3 (unknown origin) assessed as residual activity at 100 nM by KINOMEscan analysis relative to control.
The target of assay [13] is Receptor-interacting serine/threonine-protein kinase 2 (Homo sapiens) (UniProt O43353). As to the kind of experiment: Inhibition of RIPK2 (unknown origin) assessed as residual activity at 100 nM by KINOMEscan analysis relative to control.
The test system of assay [14] is Tyrosine-protein kinase ABL1 (Homo sapiens), P00519 [F317L]. As to the kind of experiment: Inhibition of phosphorylated ABL1 F317L mutant (unknown origin) assessed as residual activity at 100 nM by KINOMEscan analysis relative to control.
In assay [15] the target is Serine/threonine-protein kinase PLK1 (Homo sapiens) (UniProt P53350). As to the kind of experiment: Inhibition of PLK1 (unknown origin) assessed as residual activity at 100 nM by KINOMEscan analysis relative to control.
The target in assay [16] is Serine/threonine-protein kinase SIK3 (Homo sapiens) (UniProt Q9Y2K2). As to the kind of experiment: Inhibition of QSK (unknown origin) assessed as residual activity at 100 nM by KINOMEscan analysis relative to control.

Chain of Serine/threonine-protein kinase PLK1 (Homo sapiens) (P53350 whole entry): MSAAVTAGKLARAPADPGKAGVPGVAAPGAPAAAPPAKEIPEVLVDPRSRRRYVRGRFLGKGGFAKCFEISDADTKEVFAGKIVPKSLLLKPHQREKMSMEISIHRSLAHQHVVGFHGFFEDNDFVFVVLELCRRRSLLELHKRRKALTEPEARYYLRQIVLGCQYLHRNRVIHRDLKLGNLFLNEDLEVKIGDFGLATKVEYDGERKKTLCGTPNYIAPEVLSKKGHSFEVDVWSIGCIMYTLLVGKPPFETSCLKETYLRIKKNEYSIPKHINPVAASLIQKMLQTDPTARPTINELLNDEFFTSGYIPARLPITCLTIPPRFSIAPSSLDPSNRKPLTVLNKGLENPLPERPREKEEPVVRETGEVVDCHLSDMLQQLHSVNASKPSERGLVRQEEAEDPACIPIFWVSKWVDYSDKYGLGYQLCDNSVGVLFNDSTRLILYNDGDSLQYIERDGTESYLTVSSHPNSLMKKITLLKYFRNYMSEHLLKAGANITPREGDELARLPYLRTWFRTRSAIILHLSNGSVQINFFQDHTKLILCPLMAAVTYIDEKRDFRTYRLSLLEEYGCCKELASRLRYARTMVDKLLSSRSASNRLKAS
Chain of Leucine-rich repeat serine/threonine-protein kinase 2 (Homo sapiens), Q5S007 [G2019S] (Q5S007 whole entry G2019S): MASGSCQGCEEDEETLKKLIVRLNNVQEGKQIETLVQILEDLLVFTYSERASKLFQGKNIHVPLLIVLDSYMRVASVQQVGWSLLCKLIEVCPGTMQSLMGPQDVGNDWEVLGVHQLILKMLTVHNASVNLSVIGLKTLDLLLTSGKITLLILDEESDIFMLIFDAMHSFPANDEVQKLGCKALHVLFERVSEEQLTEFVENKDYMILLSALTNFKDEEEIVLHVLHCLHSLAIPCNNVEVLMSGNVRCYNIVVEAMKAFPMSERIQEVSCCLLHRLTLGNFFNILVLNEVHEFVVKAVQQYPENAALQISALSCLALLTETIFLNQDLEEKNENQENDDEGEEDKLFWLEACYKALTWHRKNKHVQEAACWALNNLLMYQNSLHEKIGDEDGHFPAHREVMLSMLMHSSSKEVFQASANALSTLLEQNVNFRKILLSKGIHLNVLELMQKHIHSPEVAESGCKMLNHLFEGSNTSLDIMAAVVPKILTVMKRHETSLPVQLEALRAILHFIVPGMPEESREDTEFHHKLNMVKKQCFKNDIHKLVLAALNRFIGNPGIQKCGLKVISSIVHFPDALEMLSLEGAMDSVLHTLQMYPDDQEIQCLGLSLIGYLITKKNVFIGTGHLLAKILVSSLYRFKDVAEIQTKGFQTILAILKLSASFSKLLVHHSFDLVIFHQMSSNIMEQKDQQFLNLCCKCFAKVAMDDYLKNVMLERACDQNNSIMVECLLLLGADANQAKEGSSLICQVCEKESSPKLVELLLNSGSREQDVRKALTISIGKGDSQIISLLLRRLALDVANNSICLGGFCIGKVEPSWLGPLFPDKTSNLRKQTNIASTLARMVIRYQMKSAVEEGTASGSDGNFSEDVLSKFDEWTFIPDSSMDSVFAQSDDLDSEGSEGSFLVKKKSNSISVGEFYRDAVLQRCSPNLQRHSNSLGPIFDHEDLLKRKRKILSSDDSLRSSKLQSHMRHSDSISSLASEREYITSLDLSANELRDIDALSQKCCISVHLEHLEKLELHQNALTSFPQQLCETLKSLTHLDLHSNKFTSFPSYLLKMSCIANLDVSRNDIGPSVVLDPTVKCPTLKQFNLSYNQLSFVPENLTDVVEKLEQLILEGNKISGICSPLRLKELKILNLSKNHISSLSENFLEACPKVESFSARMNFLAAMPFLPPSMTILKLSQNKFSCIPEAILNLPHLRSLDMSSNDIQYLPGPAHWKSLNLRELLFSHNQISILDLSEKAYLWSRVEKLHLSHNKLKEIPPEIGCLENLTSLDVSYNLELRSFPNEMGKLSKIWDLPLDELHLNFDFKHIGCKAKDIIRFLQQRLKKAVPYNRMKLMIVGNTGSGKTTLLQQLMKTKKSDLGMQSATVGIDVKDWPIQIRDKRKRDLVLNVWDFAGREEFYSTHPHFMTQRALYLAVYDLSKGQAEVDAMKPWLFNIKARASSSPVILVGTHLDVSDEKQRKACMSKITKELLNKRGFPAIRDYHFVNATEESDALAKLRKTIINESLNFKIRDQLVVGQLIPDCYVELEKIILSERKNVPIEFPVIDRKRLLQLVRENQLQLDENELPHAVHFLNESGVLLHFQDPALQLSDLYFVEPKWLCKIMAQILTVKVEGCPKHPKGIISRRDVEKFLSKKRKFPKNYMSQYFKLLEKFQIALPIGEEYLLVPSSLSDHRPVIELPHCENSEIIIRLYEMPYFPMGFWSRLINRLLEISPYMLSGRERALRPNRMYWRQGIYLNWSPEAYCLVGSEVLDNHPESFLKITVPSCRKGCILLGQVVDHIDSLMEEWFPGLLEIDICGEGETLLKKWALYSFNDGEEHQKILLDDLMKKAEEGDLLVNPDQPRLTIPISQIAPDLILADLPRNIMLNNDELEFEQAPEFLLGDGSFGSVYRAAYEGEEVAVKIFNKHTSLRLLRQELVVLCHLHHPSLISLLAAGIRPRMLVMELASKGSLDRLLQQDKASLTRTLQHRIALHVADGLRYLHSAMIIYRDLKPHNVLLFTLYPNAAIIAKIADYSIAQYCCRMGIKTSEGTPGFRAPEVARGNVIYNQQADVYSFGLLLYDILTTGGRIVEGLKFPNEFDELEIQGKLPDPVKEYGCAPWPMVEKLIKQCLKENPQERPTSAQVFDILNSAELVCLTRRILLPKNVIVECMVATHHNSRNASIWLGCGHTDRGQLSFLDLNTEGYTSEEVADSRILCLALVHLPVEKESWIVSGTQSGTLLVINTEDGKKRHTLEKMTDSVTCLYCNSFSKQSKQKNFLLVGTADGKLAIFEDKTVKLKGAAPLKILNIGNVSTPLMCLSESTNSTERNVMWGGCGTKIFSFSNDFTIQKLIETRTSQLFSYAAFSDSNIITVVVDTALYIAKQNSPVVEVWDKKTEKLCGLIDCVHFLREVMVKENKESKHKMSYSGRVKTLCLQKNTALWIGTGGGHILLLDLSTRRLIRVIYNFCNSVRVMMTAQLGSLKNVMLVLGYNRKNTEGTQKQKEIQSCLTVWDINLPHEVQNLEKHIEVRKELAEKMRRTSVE
Chain of Cyclin-dependent kinase 13 (Homo sapiens) (Q14004 whole entry, looked up): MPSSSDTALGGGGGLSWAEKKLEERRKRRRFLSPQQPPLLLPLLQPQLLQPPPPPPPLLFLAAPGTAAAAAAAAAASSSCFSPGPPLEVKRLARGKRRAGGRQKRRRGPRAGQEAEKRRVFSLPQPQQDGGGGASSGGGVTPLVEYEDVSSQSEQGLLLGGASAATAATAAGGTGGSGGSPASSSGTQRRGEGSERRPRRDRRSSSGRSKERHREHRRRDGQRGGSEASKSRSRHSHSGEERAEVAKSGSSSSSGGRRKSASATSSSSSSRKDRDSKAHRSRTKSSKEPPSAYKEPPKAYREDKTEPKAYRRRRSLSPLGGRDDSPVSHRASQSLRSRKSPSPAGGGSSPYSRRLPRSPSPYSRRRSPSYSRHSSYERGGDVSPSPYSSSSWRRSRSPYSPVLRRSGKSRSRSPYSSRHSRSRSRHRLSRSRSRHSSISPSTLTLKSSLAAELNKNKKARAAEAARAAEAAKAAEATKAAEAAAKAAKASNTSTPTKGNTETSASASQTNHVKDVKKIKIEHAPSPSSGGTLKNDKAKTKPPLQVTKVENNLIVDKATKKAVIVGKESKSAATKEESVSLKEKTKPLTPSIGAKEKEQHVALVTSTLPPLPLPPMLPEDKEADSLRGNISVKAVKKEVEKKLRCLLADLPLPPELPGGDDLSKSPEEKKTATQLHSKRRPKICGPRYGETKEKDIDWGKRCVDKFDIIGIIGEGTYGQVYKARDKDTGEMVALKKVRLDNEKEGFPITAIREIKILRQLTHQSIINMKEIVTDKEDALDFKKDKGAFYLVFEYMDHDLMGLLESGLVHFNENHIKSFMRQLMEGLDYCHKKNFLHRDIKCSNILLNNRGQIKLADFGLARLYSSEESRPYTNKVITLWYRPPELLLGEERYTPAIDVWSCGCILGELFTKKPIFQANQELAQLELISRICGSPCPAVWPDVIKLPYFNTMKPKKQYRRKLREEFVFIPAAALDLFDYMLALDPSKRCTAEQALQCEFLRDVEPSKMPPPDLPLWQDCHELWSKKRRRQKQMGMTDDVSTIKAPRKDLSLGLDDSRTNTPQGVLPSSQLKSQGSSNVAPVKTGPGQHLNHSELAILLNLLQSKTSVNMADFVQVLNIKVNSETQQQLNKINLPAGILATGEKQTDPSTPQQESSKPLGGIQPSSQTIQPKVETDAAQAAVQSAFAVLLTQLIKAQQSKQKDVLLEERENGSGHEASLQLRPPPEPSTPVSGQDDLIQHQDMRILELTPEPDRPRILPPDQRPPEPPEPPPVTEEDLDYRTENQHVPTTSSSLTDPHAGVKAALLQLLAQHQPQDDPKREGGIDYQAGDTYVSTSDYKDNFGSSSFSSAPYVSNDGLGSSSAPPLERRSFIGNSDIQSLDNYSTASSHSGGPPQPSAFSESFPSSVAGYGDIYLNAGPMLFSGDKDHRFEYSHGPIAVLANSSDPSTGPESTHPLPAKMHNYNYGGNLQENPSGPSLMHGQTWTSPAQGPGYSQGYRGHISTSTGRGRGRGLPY
Chain of Serine/threonine-protein kinase 32C (Homo sapiens) (Q86UX6 whole entry): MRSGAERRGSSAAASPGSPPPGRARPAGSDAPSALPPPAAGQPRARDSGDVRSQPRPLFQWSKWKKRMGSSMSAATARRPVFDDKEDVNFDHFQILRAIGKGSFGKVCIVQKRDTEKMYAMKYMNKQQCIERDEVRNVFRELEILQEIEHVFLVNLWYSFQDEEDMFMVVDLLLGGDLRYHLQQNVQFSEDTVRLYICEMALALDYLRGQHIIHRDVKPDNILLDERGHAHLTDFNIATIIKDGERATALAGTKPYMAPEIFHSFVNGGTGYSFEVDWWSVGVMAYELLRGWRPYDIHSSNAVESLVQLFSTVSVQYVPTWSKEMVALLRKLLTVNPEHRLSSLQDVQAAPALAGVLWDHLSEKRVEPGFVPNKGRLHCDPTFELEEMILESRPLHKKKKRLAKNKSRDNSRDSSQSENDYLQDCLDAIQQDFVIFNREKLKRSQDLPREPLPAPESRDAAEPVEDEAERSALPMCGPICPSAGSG

For the molecule `COc1cc2ncnc(N[C@H](C)c3cccc4ccccc34)c2cc1OC`, the Activity was found to be 85% in [1]; 97% in assay [2]; 95% in [3]; 100% in [4]; 92% in [5]; 97% in assay [6]. The Activity in assay [7] was found to be 79%; in assay [8], 100%; in assay [9], 92%; in assay [10] it was 98%; in [11], 100%; in [12] it was 100%. The Activity in [13] amounted to 84%; in [14] it was 86%; in [15] it was 85%; in [16] it was 94%.
